The values below are quoted from earlier work in US20030232875A1, “Bicyclic pyrrolyl amides as glucogen phosphorylase inhibitors” (priority 2000, published 2003).

The subject of data set [1] is conscious dogs. The note with it: following a glucagon challenge.
Data set [2] has as its system db/db and ob/ob mice. The note with it: db/db and ob/ob mice following treatment.
In data set [3] the test system is hepatocytes. The note with it: in hepatocytes.

`CCN1C(C)=C(C(=O)OC(C)C)C(c2ccccc2Cl)C2=C1COC2=O` (centres unmarked) [Bay R 3401]: in data set [1], the “arterial plasma glucose levels” value is recorded as “reduced significantly” and the hepatic glucose output result is “reduced significantly”.

On to `CN(C)C(=O)[C@H](O)[C@H](Cc1ccccc1)NC(=O)c1cc2cc(Cl)ccc2[nH]1` [CP91149], for which the plasma glucose concentration entry in data set [2] is “reduced, in a dose related manner”. In addition, in data set [3], the glucagon stimulated glycogenolysis entry is listed as “reduce” and the glucose output result is reported as “reduce”.

Take `O=C(N[C@@H](Cc1ccc(F)cc1)C(=O)N1CCC(O)CC1)c1cc2cc(Cl)ccc2[nH]1` [CP320626]: in data set [2], the plasma glucose concentration result was “reduced, in a dose related manner”. Besides, in data set [3], the glucagon stimulated glycogenolysis result was “reduce” and the glucose output entry is “reduce”.
